From patent US6207389A, “Methods of controlling T lymphocyte mediated immune responses” (HRC Research and Development Limited Partnership, priority 1995, dated 2001)

Tests used:
[1] = test system: PBMC from children with recent onset diabetes; assay: Proliferative response of PBMC to peptide fragments in the presence of IL2 (Example 4); format: cell-based, human; conditions: patient PBMC
Description: (§1) Cultures containing 5×10^4 cells were incubated for 7 days at 37° C. in serum-free HL-1 medium (Ventrex, Portland, Me.) containing 1 μg antigen per well for test samples.
(§2) After an overnight pulse of 1 μci ^3 H thymidine, cultures were harvested and submitted to liquid scintillation counting. Proliferation was expressed as cpm ^3 HTdR×10^-3.
Control cultures were stimulated with 1 μg ovalbumin or horse or human albumin. […] A 4 h. pulse with 1 μCi ^3 H thymidine was used.
Each synthetic peptide was tested with PBMC from at least 3 children with recent onset diabetes. Stimulation Index=^3 H Thymidine Incorporation in peptide-stimulated culture in cpm divided by Thymidine incorporation in control culture in cpm.
Peptides corresponding to stretches of the amino acid sequence of human p69 were also synthesised and the proliferative response to patient PBMC cultures to these peptides were similarly tested, in the presence of IL2.

[2] = test system: PBMC from children with recent onset diabetes; assay: T cell proliferation assay with BSA and rec-p69, patients (Example 3); format: cell-based, human; conditions: 1 μg antigen
Description: as §1
(§3) Control cultures were treated with 1 μg human, chick or horse albumin or an equivalent volume of control recombinant antigen prepared from lysates of E. coli carrying wild type plasmid.
as §2
(§4) A parallel set of cell cultures was incubated with the same test antigens or control agents in the presence of 10 U human IL2.

[3] = test system: PBMC from healthy subjects; assay: T cell proliferation assay with BSA and rec-p69, healthy subjects (Example 3); format: cell-based, human; conditions: with or without IL2
Description: as §1, §3, §2, §4

[4] = test system: PBMC cultures from patients with recent onset diabetes; assay: Proliferative responses to antigen mixtures (Example 5); format: cell-based, human; conditions: patient PBMC, no IL2 (FIG. 9A)
Description: Proliferation assays were conducted as described in Example 3. Control cultures were treated with 1 μg horse albumin or with the peptides P2240, P2269, P2270 or H1029. Results with control antigens were similar and data were pooled.
Responses were expressed as mean of triplicate cultures; variations were <12%. Responses in the absence of IL2 are shown in FIG. 9, Panel A. Parallel cultures were treated with the same antigens and antigen mixtures in the presence of 10U IL2.

[5] = test system: PBMC from a child with recent onset diabetes; assay: Proliferative response, patient cells (Example 6); format: cell-based, human; conditions: 1 μg antigen per culture, 7 days
Description: Replicate cultures of PBMC from a child with recent onset diabetes and a healthy control subject were stimulated with P2267, Tep69, Herpes simplex antigen or a mixture of P2267 and Tep69 (1 μg antigen per culture) as described in Example 3. After 2 days of incubation, one patient cell culture and one healthy control culture were harvested for RNA extraction and measurement of IL2 receptor transcripts by RT-PCR, as described by Cheung et al., (1991), J. Biol. Chem., v. 266, pp. 8667-8670. PCR was used to amplify a 739 bp fragment of IL2R coding sequence from patient and control and also a 430 bp region in the human β-actin gene of patient.
Remaining cultures were incubated for a further 5 days and used to determine proliferative responses as described in Example 3.

female NOD mice [6] = assay: IDDM development after immunotherapy with BSA or ABBOS in adjuvant (Example 7); format: in vivo, mouse; conditions: 150 μg BSA or 50 μg ABBOS in incomplete Freund's Adjuvant sc at 5 weeks, ip booster one week later; up to 9 months
Description: (§5) A control group (13 mice) was injected with incomplete Freund's Adjuvant only and a further control group (13 mice) was untreated. A booster injection of the same treatment material was given intraperitoneally one week later.
IDDM development was followed by testing for urine glucose and when urine glucose was detected, blood glucose was then determined.

female NOD mice [7] = assay: Circulating IgG anti-BSA antibodies by particle concentration fluoroimmunoassay (Example 7); format: in vivo, mouse; conditions: same treatment; over 34 weeks
Description: as §5
Circulating IgG anti-BSA antibodies were measured over the 34 weeks of the experiment, using the particle concentration fluoroimmunoassay described by the inventors in International Patent Application No. PCT/CA93/000304.

[8] = test system: NOD mice lymph node cells; assay: Immunization and T cell proliferation assay, NOD mice (Example 11); format: in vivo, mouse; conditions: 50 μg sc in complete Freund's adjuvant, recall with 1 μg antigen in vitro
Description: (§6) Recombinant truncated p69 was prepared by expression of a portion of the cDNA of IS4. The cDNA was cut a few nucleotides downstream of the 3' terminal of exon 3 and was subcloned into the PET™ expression system according to the manufacturer's recommendations (Novagen Inc., Madison, Wis.). The truncated protein contains 100 amino acids and is essentially identical with the murine molecule.
(§7) Antigens were injected subcutaneously in complete Freunds' adjuvant, and local lymph nodes and blood samples were collected 10 days later. Triplicate cultures of 2×10^5 lymph node cells were incubated for 5 days in serum-free HGM-af Medium™ (Promo Cell, Heidelberg, Germany) in the presence of 1 μg of protein or synthetic peptide as recall antigen. Six hours before harvesting, 1 μCi ^3 H-thymidine (6.7 Ci/mmol) was added to the wells, and isotope incorporation was analysed by liquid scintillation counting. Values are expressed as mean counts per minute ± standard deviation (mean cpm ± SD).
(§8) Young male NOD mice (H2^G7, IE^-/-) received a single immunization with truncated p69 (as encoded by IS4 cDNA) in complete adjuvant, and antibody and T cell proliferative responses were measured 8-10 days later. MHC disparate C57/B6 (H2^b, IE^-/-) and SJL (H2^s, IE^-/-) mice served as non-diabetes prone controls (FIG. 31).

[9] = test system: C57/B6 and SJL mice lymph node cells; assay: Immunization and T cell proliferation assay, non-diabetes prone control mice (Example 11); format: in vivo, mouse; conditions: 50 μg sc in complete Freund's adjuvant
Description: as §6, §7, §8

NOD mice = assay: Serum antibodies to BSA and p69 by fluoroimmunoassay, NOD mice (Example 11); format: in vivo, mouse; conditions: 50 μg sc in complete Freund's adjuvant
Description: (§9) Male non-obese diabetic mice (NOD, 6-7 weeks old) were immunized with 50 μg BSA, ABBOS-short peptide ([…]), recombinant truncated p69 or p69 T cell epitope peptide `Tep69` ([…]) (10). Recombinant truncated p69 was prepared by expression of a portion of the cDNA of IS4. The cDNA was cut a few nucleotides downstream of the 3' terminal of exon 3 and was subcloned into the PET™ expression system according to the manufacturer's recommendations (Novagen Inc., Madison, Wis.).
(§10) Antigens were injected subcutaneously in complete Freunds' adjuvant, and local lymph nodes and blood samples were collected 10 days later. […] Six hours before harvesting, 1 μCi ^3 H-thymidine (6.7 Ci/mmol) was added to the wells, and isotope incorporation was analysed by liquid scintillation counting. Values are expressed as mean counts per minute ± standard deviation (mean cpm ± SD).
(§11) Serum antibodies to BSA and p69 were measured by particle concentration fluoroimmunoassay, as described (11). […] Bound fluorescence was read by an automated ScreenMachine™ instrument (IDEXX, Portland, Me.). Data are expressed in kilofluorescence units relative to a standard mouse serum analyzed in parallel within each assay plate.
(§12) Young male NOD mice (H2^G7, IE^-/-) received a single immunization with truncated p69 (as encoded by IS4 cDNA) in complete adjuvant, and antibody and T cell proliferative responses were measured 8-10 days later. […]

C57/B6 and SJL mice = assay: Serum antibodies to BSA and p69 by fluoroimmunoassay, control mice (Example 11); format: in vivo, mouse; conditions: 50 μg sc in complete Freund's adjuvant
Description: as §9, §10, §11, §12

bovine serum albumin [BSA]
PBMC proliferative response [1]: significantly higher than responses to control antigens or peptides | proliferative response of patient samples ([2]; absence of IL2): marked proliferative response | proliferative response of patient samples ([2]; presence of 10 U IL2): increased response | proliferative response of samples from healthy subjects [3]: no significant proliferative response | PBMC proliferation in the absence of IL2 [4]: gave PBMC proliferation in the absence of IL2 | proliferation of patient cells [5]: 6740±480 cpm | development of IDDM (female NOD mice [6]): complete prevention of IDDM | anti-BSA antibody response (female NOD mice [7]): massive antibody response | T cell proliferative response after immunisation [8]: vigorous B- and T cell responses | T cell proliferative response after immunisation [9]: vigorous B- and T cell responses | antibody response after immunisation (anti-p69 or anti-BSA) (NOD mice): vigorous B- and T cell responses | antibody response after immunisation (anti-p69 or anti-BSA) (C57/B6 and SJL mice): vigorous B- and T cell responses
